Data taken from US20060276464A1, “Diarylsulfone sulfonamides and use thereof” (Wyeth, priority 2005, published 2006).
“And” between values parts separate entries of the source, which are not always exact repeats. Identical values can stand only once. Like-named read-outs stand apart in the source and are kept apart here.

Assays:
[1] = target: T1, SFRP-1 (Homo sapiens, UniProt Q8N474); assay: Fluorescence polarization binding assay (competitive displacement of a probe compound from SFRP-1); settings: fluorescence anisotropy, 45 nM SFRP-1, 20 nM probe;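 further: test compound competes with a fluorescent probe held by SFRP-1, seen as a drop in probe anisotropy after incubation in darkness, with anisotropy as function of rising compound dose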
T1 sequence (Q8N474 32-314): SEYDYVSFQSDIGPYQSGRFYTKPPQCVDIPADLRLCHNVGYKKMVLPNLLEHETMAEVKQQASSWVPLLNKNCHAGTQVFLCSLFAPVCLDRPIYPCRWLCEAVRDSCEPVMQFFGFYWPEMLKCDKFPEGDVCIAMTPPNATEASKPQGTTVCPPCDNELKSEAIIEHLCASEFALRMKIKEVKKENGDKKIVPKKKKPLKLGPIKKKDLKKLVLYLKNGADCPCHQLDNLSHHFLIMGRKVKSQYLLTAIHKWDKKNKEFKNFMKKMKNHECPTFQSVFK

[2] = target: T1, SFRP-1; assay: Cell-based assay for in vitro measurement of SFRP-1/SARP2 antagonist activity (U2OS cells co-transfected with 16x TCF-tk-Luciferase reporter, Wnt and hSFRP-1); settings: for fold induction at 10 µM / fold induction at 15 µM: U2OS; for fold induction at 10 µM: read-out: Fold Induction with SFRP-1, U2OS cells, single dose 10 μM, luciferase reporter, fold induction over SFRP-1 control;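 on all read-outs here: U2OS cells co-transfected with a TCF-tk luciferase reporter, a Wnt vector, hSFRP-1 or empty vector and CMV-βgal, luciferase luminescence read in cell lysates alongside βgal activity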
[3] = read-out: Fold Induction with SFRP-1, Conc 15 μM, with SFRP-1, fold induction over SFRP-1 control, single dose
[4] = read-out: Fold Induction without SFRP-1, Conc 15 μM, without SFRP-1, single dose
[5] = read-out: Fold Induction with SFRP-1, Conc 15 μM, single dose, luciferase reporter, fold induction over SFRP-1 control, cells with SFRP-1
[6] = read-out: Fold Induction without SFRP-1, Conc 15 μM, single dose, luciferase reporter, cells without SFRP-1 (specificity control)

Compound | IC50 [1] | EC50 [2] [µM] | fold induction at 10 µM [2] | other results
CC(C)c1ccc(S(=O)(=O)c2ccccc2)cc1S(=O)(=O)NCC(O)c1ccccc1 (stereo not shown) [Example 736, N-(2-hydroxy-2-phenylethyl)-2-isopropyl-5-(phenylsulfonyl)benzenesulfonamide] | 0.4 µM | 1.76 | 5 | –
O=S(=O)(N[C@H](CO)Cc1c[nH]c2ccccc12)c1cc(S(=O)(=O)c2ccccc2)ccc1C(F)(F)F [Example 721, N-[(1S)-2-hydroxy-1-(1H-indol-3-ylmethyl)ethyl]-5-(phenylsulfonyl)-2-(trifluoromethyl)benzenesulfonamide] | 2 µM | – | 2.7 | –
CCc1ccc(S(=O)(=O)c2ccccc2)cc1S(=O)(=O)NCCCn1ccnc1 [Example 231, 2-ethyl-N-[3-(1H-imidazol-1-yl)propyl]-5-(phenylsulfonyl)benzenesulfonamide] | 0.3 µM and 0.6 µM | – | – | Fold Induction with SFRP-1 ([2]; Conc 15 μM, with SFRP-1, fold induction over SFRP-1 control, single dose): 2.8 fold; Fold Induction without SFRP-1 ([2]; Conc 15 μM, without SFRP-1, single dose): 0.8 fold; fold induction at 15 µM [2, 3]: 3.4; fold induction at 15 µM [2, 4]: 1
CC(C)c1ccc(S(=O)(=O)c2ccc(F)cc2)cc1S(=O)(=O)NC1CCSCC1 [Example 815, 5-[(4-fluorophenyl)sulfonyl]-2-isopropyl-N-(tetrahydro-2H-thiopyran-4-yl)benzenesulfonamide] | 1.8 µM | – | 2.2 | –
CC(C)c1ccc(S(=O)(=O)c2cccc(Cl)c2)cc1S(=O)(=O)NCCc1ccccn1 [Example 455, 5-[(3-chlorophenyl)sulfonyl]-2-isopropyl-N-(2-pyridin-2-ylethyl)benzenesulfonamide] | 0.5 µM | – | – | fold induction at 15 µM [2, 3]: 3.2; fold induction at 15 µM [2, 4]: 1
O=S(=O)(NCCCN1CCOCC1)c1cc(S(=O)(=O)c2ccccc2)ccc1C(F)(F)F [Example 767, N-(3-morpholin-4-ylpropyl)-5-(phenylsulfonyl)-2-(trifluoromethyl)benzenesulfonamide] | 0.9 µM | – | 3.6 | –
COCC(=O)N1CCC(NS(=O)(=O)c2cc(S(=O)(=O)c3ccc(F)cc3)ccc2C)CC1 [Example 589, 5-[(4-fluorophenyl)sulfonyl]-N-[1-(methoxyacetyl)piperidin-4-yl]-2-methylbenzenesulfonamide] | 4 µM | – | – | fold induction at 15 µM [2, 5]: 2.6; fold induction at 15 µM [2, 6]: 1.3
O=S(=O)(NC1c2ccccc2CC1O)c1cc(S(=O)(=O)c2ccccc2)ccc1C(F)(F)F (stereo not shown) [Example 823, N-(2-hydroxy-2,3-dihydro-1H-inden-1-yl)-5-(phenylsulfonyl)-2-(trifluoromethyl)benzenesulfonamide] | 0.8 µM | 3 | 2.6 | –
COc1ccccc1C(=O)N1CCC(NS(=O)(=O)c2cc(S(=O)(=O)c3ccccc3)ccc2C)CC1 [Example 462, N-[1-(2-methoxybenzoyl)piperidin-4-yl]-2-methyl-5-(phenylsulfonyl)benzenesulfonamide] | 2 µM | – | – | fold induction at 15 µM [2, 3]: 2.9; fold induction at 15 µM [2, 4]: 1
O=S(=O)(NCCc1cccnc1)c1cc(S(=O)(=O)c2ccccc2)ccc1Cl [Example 640, 2-chloro-5-(phenylsulfonyl)-N-(2-pyridin-3-ylethyl)benzenesulfonamide] | 1.2 µM | – | – | fold induction at 15 µM [2, 5]: 3.5; fold induction at 15 µM [2, 6]: 1.2
Cc1cc(C)c(S(=O)(=O)c2ccc(F)cc2)cc1S(=O)(=O)NCCn1ccnc1 [Example 329, 5-[(4-fluorophenyl)sulfonyl]-N-[2-(1H-imidazol-1-yl)ethyl]-2,4-dimethylbenzenesulfonamide] | 1 µM | – | – | fold induction at 15 µM [2, 3]: 2.9; fold induction at 15 µM [2, 4]: 0.9
Cc1nn(C)c(Cl)c1S(=O)(=O)c1ccc(C(C)C)c(S(=O)(=O)NC2CCOCC2)c1 [Example 569, 5-[(5-chloro-1,3-dimethyl-1H-pyrazol-4-yl)sulfonyl]-2-isopropyl-N-(tetrahydro-2H-pyran-4-yl)benzenesulfonamide] | 1.5 µM | – | – | fold induction at 15 µM ([2]; read-out: Fold Induction with SFRP-1): 3.8; fold induction at 15 µM ([2]; read-out: Fold Induction without SFRP-1): 1.1
COc1ccc2c(c1)CC(NS(=O)(=O)c1cc(S(=O)(=O)c3ccccc3)ccc1C(F)(F)F)C2 (stereo not shown) [Example 991, N-(5-methoxy-2,3-dihydro-1H-inden-2-yl)-5-(phenylsulfonyl)-2-(trifluoromethyl)benzenesulfonamide] | 0.08 µM | 2.64 | – | –
O=S(=O)(N[C@@H]1CCCNC1)c1cc(S(=O)(=O)c2ccccc2)ccc1C(F)(F)F [Example 791, 5-(phenylsulfonyl)-N-[(3R)-piperidin-3-yl]-2-(trifluoromethyl)benzenesulfonamide] | 3 µM | – | 3.8 | –
CN(CCNS(=O)(=O)c1cc(S(=O)(=O)c2ccccc2)ccc1C(F)(F)F)C(=O)N1CCN(C(=O)OC(C)(C)C)CC1 [Example 887, tert-butyl 4-({methyl[2-({[5-(phenylsulfonyl)-2-(trifluoromethyl)phenyl]sulfonyl}amino)ethyl]amino}carbonyl)piperazine-1-carboxylate] | 3 µM | 1.77 | 2.3 | –
CC(C)(C)c1ccc(C(=O)N2CCC(NS(=O)(=O)c3cc(S(=O)(=O)c4ccccc4)ccc3C(F)(F)F)C2)cc1 (stereo not shown) [Example 761, N-[1-(4-tert-butylbenzoyl)pyrrolidin-3-yl]-5-(phenylsulfonyl)-2-(trifluoromethyl)benzenesulfonamide] | 0.6 µM | 1.57 | 3.2 | –
Cc1ccc(S(=O)(=O)c2ccccc2)cc1S(=O)(=O)NCCc1ccccn1 [Example 205, 2-methyl-5-(phenylsulfonyl)-N-(2-pyridin-2-ylethyl)benzenesulfonamide] | 3 µM | – | – | fold induction at 15 µM [2, 3]: 2.3; fold induction at 15 µM [2, 4]: 0.8
CC(C)c1ccc(S(=O)(=O)c2ccc(F)cc2)cc1S(=O)(=O)NC1CCCC1 [Example 523, N-cyclopentyl-5-[(4-fluorophenyl)sulfonyl]-2-isopropylbenzenesulfonamide] | 3 µM | – | – | fold induction at 15 µM [2, 5]: 2.1; fold induction at 15 µM [2, 6]: 1
O=C(O)C1CCCC(NS(=O)(=O)c2cc(S(=O)(=O)c3ccccc3)ccc2C(F)(F)F)C1 (stereo not shown) [Example 967, 3-({[5-(phenylsulfonyl)-2-(trifluoromethyl)phenyl]sulfonyl}amino)cyclohexanecarboxylic acid] | 2.5 µM | – | 2.1 | –
Cc1ccc(S(=O)(=O)c2ccc(F)cc2)cc1S(=O)(=O)NC1CCN(C(=O)N(C)C)CC1 [Example 587, 4-[({5-[(4-fluorophenyl)sulfonyl]-2-methylphenyl}sulfonyl)amino]-N,N-dimethylpiperidine-1-carboxamide] | 5 µM | – | – | fold induction at 15 µM [2, 5]: 1.2; fold induction at 15 µM [2, 6]: 1.2
Cc1ccc(S(=O)(=O)c2ccccc2)cc1S(=O)(=O)NC1CCN(C(=O)c2cccs2)CC1 [Example 497, 2-methyl-5-(phenylsulfonyl)-N-[1-(2-thienylcarbonyl)piperidin-4-yl]benzenesulfonamide] | 1.3 µM and 1.7 µM | – | – | fold induction at 15 µM [2, 5]: 2.4; fold induction at 15 µM [2, 6]: 1
COc1cccc(S(=O)(=O)c2ccc(C(F)(F)F)c(S(=O)(=O)NC3CCN(C(=O)c4ccc(C(C)(C)C)cc4)CC3)c2)c1 [Example 746, N-[1-(4-tert-butylbenzoyl)piperidin-4-yl]-5-[(3-methoxyphenyl)sulfonyl]-2-(trifluoromethyl)benzenesulfonamide] | 0.3 µM | 0.453 | 5 | –
Cc1ccc(S(=O)(=O)c2ccccc2)cc1S(=O)(=O)NC1CCN(C(=O)OC(C)(C)C)CC1 [Example 446, tert-butyl 4-({[2-methyl-5-(phenylsulfonyl)phenyl]sulfonyl}amino)piperidine-1-carboxylate] | 2 µM | – | – | fold induction at 15 µM [2, 3]: 2.3; fold induction at 15 µM [2, 4]: 1.1
O=C(O)C1CCC(NS(=O)(=O)c2cc(S(=O)(=O)c3ccccc3)ccc2C(F)(F)F)CC1 (stereo not shown) [Example 968, 4-({[5-(phenylsulfonyl)-2-(trifluoromethyl)phenyl]sulfonyl}amino)cyclohexanecarboxylic acid] | 1.4 µM | – | 2.4 | –
CN(CCNS(=O)(=O)c1cc(S(=O)(=O)c2ccccc2)ccc1C(F)(F)F)C(=O)OC(C)(C)C [Example 793, tert-Butyl methyl[2-({[5-(phenylsulfonyl)-2-(trifluoromethyl)phenyl]sulfonyl}amino)ethyl]carbamate] | 0.6 µM | 1.54 | 2.5 | –
CC(C)(C)OC(=O)N1CCC(NS(=O)(=O)c2cc(S(=O)(=O)c3ccccc3)ccc2C(F)(F)F)CC1 [Example 687, tert-butyl 4-({[5-(phenylsulfonyl)-2-(trifluoromethyl)phenyl]sulfonyl}amino)piperidine-1-carboxylate] | 0.5 µM | 0.261 | 3.2 | –
O=C(O)c1ccc(CCNS(=O)(=O)c2cc(S(=O)(=O)c3ccccc3)ccc2C(F)(F)F)cc1 [Example 877, 4-[2-({[5-(phenylsulfonyl)-2-(trifluoromethyl)phenyl]sulfonyl}amino)ethyl]benzoic acid] | 0.03 µM | 0.257 | 3.9 | –
